Measured values as given in the supplement of paper PMC10307832.

How the values were obtained:
Experiment in all cases: relative viability (nuclei count vs DMSO), 5 days (fraction); higher = more cells survive
[1] = compound: CCC1=CN=CN=C1N2CCN(CC2)CC3=NC4=C(N3)C=C(C=C4)C(F)(F)F + CCNC(=O)c1noc(-c2cc(C(C)C)c(O)cc2O)c1-c1ccc(CN2CCOCC2)cc1 [Luminespib] (partner 0.01 µM)
Outline: (§1)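 Five library-drug doses in √10 steps were combined with a fixed anchor-drug dose, or a single drug was given alone, by pin tool to lung cancer cell lines in 1536-well plates the day after seeding. Nuclei were stained and counted after 5 days. Relative viability is the nuclei count in treated wells over that in vehicle wells, taken as the median of duplicate plates.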

[2] = compound: CCC1=CN=CN=C1N2CCN(CC2)CC3=NC4=C(N3)C=C(C=C4)C(F)(F)F + CS(=O)(=O)CCNCc1ccc(-c2ccc3ncnc(Nc4ccc(OCc5cccc(F)c5)c(Cl)c4)c3c2)o1 [Lapatinib] (partner 2 µM)
Outline: as §1

[3] = compound: CCn1c(-c2nonc2N)nc2cnc(Oc3cccc(NC(=O)c4ccc(OCCN5CCOCC5)cc4)c3)cc21 + CC1(C)CCC(c2ccc(Cl)cc2)=C(CN2CCN(c3ccc(C(=O)NS(=O)(=O)c4ccc(N[C@H](CCN5CCOCC5)CSc5ccccc5)c(S(=O)(=O)C(F)(F)F)c4)cc3)CC2)C1 [Navitoclax] (partner 0.5 µM)
Outline: as §1

Mirin + OSI-027 = compound: N=C1NC(=O)/C(=C/c2ccc(O)cc2)S1 [Mirin] + COc1cccc2cc(-c3nc([C@H]4CC[C@H](C(=O)O)CC4)n4ncnc(N)c34)[nH]c12 [OSI-027] (partner 0.5 µM)
Outline: as §1

Row | Cell Line | relative viability ([1]; first compound 0.04 µM) | relative viability ([1]; first compound 0.1265 µM) | relative viability ([1]; first compound 0.4 µM) | relative viability ([1]; first compound 1.265 µM) | relative viability ([1]; first compound 4 µM) | relative viability ([2]; first compound 0.04 µM) | relative viability ([2]; first compound 0.1265 µM) | relative viability ([2]; first compound 0.4 µM) | relative viability ([2]; first compound 1.265 µM) | relative viability ([2]; first compound 4 µM) | relative viability ([3]; first compound 0.04 µM) | relative viability ([3]; first compound 0.1265 µM) | relative viability ([3]; first compound 0.4 µM) | relative viability ([3]; first compound 1.265 µM) | relative viability ([3]; first compound 4 µM) | relative viability (Mirin + OSI-027; first compound 0.25 µM) | relative viability (Mirin + OSI-027; first compound 0.7906 µM) | relative viability (Mirin + OSI-027; first compound 2.5 µM) | relative viability (Mirin + OSI-027; first compound 7.906 µM) | relative viability (Mirin + OSI-027; first compound 25 µM)
1 | LK-2 | 0.204 | 0.182 | 0.159 | 0.195 | 0.202 | 0.947 | 0.797 | 0.838 | 0.498 | 0.985 | 0.989 | 0.928 | 0.467 | 0.349 | 0.686 | 0.195 | 0.154 | 0.198 | 0.138 | 0.146
2 | NCI-H3122 | 0.109 | 0.0823 | 0.0856 | 0.0704 | 0.0698 | 1.11 | 0.992 | 1 | 1.03 | 0.961 | 1.02 | 1.03 | 1.05 | 0.974 | 0.979 | 0.954 | 0.809 | 0.921 | 0.887 | 0.902
3 | NCI-H2126 | 0.847 | 0.89 | 0.931 | 0.773 | 0.922 | 0.772 | 0.713 | 0.708 | 0.736 | 0.838 | 0.87 | 0.822 | 0.825 | 0.917 | 0.84 | 0.76 | 0.655 | 0.585 | 0.773 | 0.579
4 | NCI-H520 | 0.243 | 0.256 | 0.264 |  | 0.199 | 0.846 | 0.862 | 0.857 | 0.588 | 0.729 | 1.21 | 1.13 | 0.955 | 0.555 | 0.385 | 0.241 | 0.289 | 0.257 | 0.222 | 0.177
5 | LOU-NH91 | 0.341 | 0.403 | 0.32 | 0.323 | 0.313 | 0.761 | 0.794 | 0.77 | 0.644 | 0.844 | 0.8 | 0.597 | 0.557 | 0.392 | 0.447 | 0.737 | 0.769 | 0.751 | 0.731 | 0.832
6 | NCI-H1651 | 0.977 | 0.84 | 0.739 | 0.923 | 0.767 | 0.839 | 0.827 | 0.818 | 0.787 | 0.87 | 1.17 | 1.14 | 1.05 | 0.925 | 0.471 | 0.782 | 0.701 | 0.877 | 0.549 | 0.662
7 | NCI-H460 | 0.0311 | 0.0367 | 0.0386 | 0.0407 | 0.0253 | 1.09 | 0.973 | 0.878 | 0.812 | 0.936 | 1.07 | 1.01 | 1.13 | 0.393 | 0.26 | 0.612 | 0.672 | 0.748 | 0.55 | 0.389
